According to PMC3777804 (Journal of computer-aided molecular design, 2013):
pIC50: −log10 of the molar value.

system: cell-cell fusion of TZM-bl target cells and HL2/3 effector cells (HXB2 Env); test: cell-cell fusion, luciferase reporter; assay type: cell-based, HIV-1; details: read-out: IC50 CCF, 6 hours, 1% DMSO, results ±50%

**Q.** [Phe]-Trp was tested. Which pIC50 did it give?
**A.** 5.05

**Q.** How did the pIC50 turn out when [Trp]-Phe was run?
**A.** 5.40

**Q.** With [Trp]-Trp as the substance, how does the pIC50 read?
**A.** 4.72
